# Data: US20100204203A1, “Chemical Compounds 637: Pyridopyrimidinediones as PDE4 Inhibitors” (priority 2007, published 2010)
# Molecular target: recombinant Human Phosphodiesterase B2 (PDE4B2) (Homo sapiens, UniProt Q07343)
# Experiment: Human Phosphodiesterase B2 Radiometric Assay (yttrium silicate SPA beads, [3H]cyclic AMP)
# Format: biochemical
# Settings: recombinant human PDE4B2, radiometric SPA assay, 8 nM [3H]cyclic AMP; read-out: PDE4B2 pIC50 (converted)
# Summary of the method: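 Compounds were preincubated 30 min at 30 °C with 0.1 mg/mL PDE4B2 in 50 mM HEPES pH 7.5, 8.3 mM MgCl2, 1.7 mM EGTA, 0.01% Brij 35. Then 8 nM [3H]cAMP was added for 20 min, stopped with yttrium silicate SPA beads plus 18 mM ZnSO4 capturing product 5′AMP; pIC50 by curve fitting.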
# recombinant Human Phosphodiesterase B2 (PDE4B2), sequence (Q07343 1-564 isoform Q07343-2): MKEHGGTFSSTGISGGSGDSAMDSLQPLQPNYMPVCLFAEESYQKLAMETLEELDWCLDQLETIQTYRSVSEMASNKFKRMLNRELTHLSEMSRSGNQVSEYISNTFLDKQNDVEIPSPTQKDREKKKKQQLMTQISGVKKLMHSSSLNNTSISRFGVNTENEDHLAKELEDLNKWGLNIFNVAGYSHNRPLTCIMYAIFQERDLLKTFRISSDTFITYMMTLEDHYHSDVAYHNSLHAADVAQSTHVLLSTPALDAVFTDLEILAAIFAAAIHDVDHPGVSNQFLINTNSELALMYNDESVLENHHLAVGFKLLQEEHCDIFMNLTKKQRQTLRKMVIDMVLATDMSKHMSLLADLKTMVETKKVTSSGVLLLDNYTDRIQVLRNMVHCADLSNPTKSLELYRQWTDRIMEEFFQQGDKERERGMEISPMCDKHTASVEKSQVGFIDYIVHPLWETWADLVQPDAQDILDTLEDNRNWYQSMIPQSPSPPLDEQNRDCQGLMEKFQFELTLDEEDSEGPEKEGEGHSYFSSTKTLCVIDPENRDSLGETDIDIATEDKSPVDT
row,IC50 [pM],Structure (SMILES)
1,31.6,"C[C@@H]1COCCN1Cc1cc(O)ccc1-c1cccc(-n2c(=O)n([C@H]3CC[C@@H](NCc4cn5cc(F)ccc5n4)CC3)c(=O)c3cc(F)cnc32)c1 [Example 316, 6-fluoro-3-(cis-4-{[(6-fluoroimidazo[1,2-a]pyridin-2-yl)methyl]amino}cyclohexyl)-1-(4′-hydroxy-2′-{[(3R)-3-methylmorpholin-4-yl]methyl}biphenyl-3-yl)pyrido[2,3-d]pyrimidine-2,4(1H,3H)-dione]"
2,39.8,"O=CN1CCCN(Cc2cc(O)ccc2-c2cccc(-n3c(=O)n([C@H]4CC[C@@H](NCc5cn6cc(F)ccc6n5)CC4)c(=O)c4cc(F)cnc43)c2)CC1 [Example 376, 4-({3′-[6-fluoro-3-(cis-4-{[(6-fluoroimidazo[1,2-a]pyridin-2-yl)methyl]amino}cyclohexyl)-2,4-dioxo-3,4-dihydropyrido[2,3-d]pyrimidin-1(2H)-yl]-4-hydroxybiphenyl-2-yl}methyl)-1,4-diazepane-1-carbaldehyde]"
3,12600,"CN(C)Cc1ccc(-c2cccc(-n3c(=O)n([C@H]4CC[C@@H](N)CC4)c(=O)c4cc(F)cnc43)c2)cc1 [Example 49, 3-(cis-4-aminocyclohexyl)-1-{4′-[(dimethylamino)methyl]biphenyl-3-yl}-6-fluoropyrido[2,3-d]pyrimidine-2,4(1H,3H)-dione]"
4,31.6,"Cc1c(CN[C@H]2CC[C@@H](n3c(=O)c4cc(F)cnc4n(-c4cccc(-c5ccc(O)cc5CN5CCOCC5)c4)c3=O)CC2)nc2ccccn12 [Example 336, 6-fluoro-1-[4′-hydroxy-2′-(morpholin-4-ylmethyl)biphenyl-3-yl]-3-(cis-4-{[(3-methylimidazo[1,2-a]pyridin-2-yl)methyl]amino}cyclohexyl)pyrido[2,3-d]pyrimidine-2,4(1H,3H)-dione]"
5,316,CC(C)(C)OC(=O)N[C@H]1CC[C@@H](n2c(=O)c3cc(F)cnc3n(-c3cccc(-c4ccccc4CN4CCOCC4)c3)c2=O)CC1 [Example 45]
6,79.4,"Cc1cccc(CN[C@H]2CC[C@@H](n3c(=O)c4cc(F)cnc4n(-c4cccc(-c5ccc(O)cc5CN5CCOCC5)c4)c3=O)CC2)n1 [Example 284, 6-fluoro-1-{4′-hydroxy-2′-(morpholin-4-ylmethyl)biphenyl-3-yl]-3-(cis-4-{[(6-methylpyridin-2-yl)methyl]amino}cyclohexyl)pyrido [2,3-d]pyrimidine-2,4(1H,3H)-dione]"
7,2000,"N[C@H]1CC[C@@H](n2c(=O)c3cc(F)cnc3n(-c3cccc(-c4ccccc4CN4CCOCC4)c3)c2=O)CC1 [Example 46, 3-(cis-4-aminocyclohexyl)-6-fluoro-1-[2′-(morpholin-4-ylmethyl)biphenyl-3-yl]pyrido[2,3-d]pyrimidine-2,4(1H,3H)-dione]"
8,39.8,"O=C(N[C@H]1CC[C@@H](n2c(=O)c3cc(F)cnc3n(-c3cccc(-c4ccc(CN5CCCNCC5)cc4)c3)c2=O)CC1)c1nc2ccccc2[nH]1 [Example 354, N-{cis-4-[1-[4′-(1,4-diazepan-1-ylmethyl)biphenyl-3-yl]-6-fluoro-2,4-dioxo-1,4-dihydropyrido[2,3-d]pyrimidin-3(2H)-yl]cyclohexyl}-1H-benzimidazole-2-carboxamide]"

# Second part, the compound before the results:
row,Structure (SMILES),IC50 [pM]
1,"CC(C)NC(=O)CN1CCN(Cc2ccc(-c3cccc(-n4c(=O)n([C@H]5CC[C@@H](NC(=O)c6cn7c(n6)CCCC7)CC5)c(=O)c5cc(F)cnc54)c3)cc2)CC1 [Example 219, N-{cis-4-[6-fluoro-1-[4′-({4-[2-(isopropylamino)-2-oxoethyl]piperazin-1-yl}methyl)biphenyl-3-yl]-2,4-dioxo-1,4-dihydropyrido[2,3-d]pyrimidin-3(2H)-yl]cyclohexyl}-5,6,7,8-tetrahydroimidazo[1,2-a]pyridine-2-carboxamide]",5.01
2,"Cc1n[nH]cc1C(=O)N[C@H]1CC[C@@H](n2c(=O)c3cc(F)cnc3n(-c3cccc(-c4ccc(CN5CCN(C(C)C)CC5)cc4)c3)c2=O)CC1 [Example 235, N-{cis-4-[6-fluoro-1-{4′-[(4-isopropylpiperazin-1-yl)methyl]biphenyl-3-yl}-2,4-dioxo-1,4-di-hydropyrido[2,3-d]pyrimidin-3(2H)-yl]cyclohexyl}-3-methyl-1H-pyrazole-4-carboxamide]",126
3,"O=C(N[C@H]1CC[C@@H](n2c(=O)c3cc(F)cnc3n(-c3cccc(Cc4ccccc4)c3)c2=O)CC1)c1cn2ccccc2n1 [Example 34, N-{cis-4-[1-(3-benzylphenyl)-6-fluoro-2,4-dioxo-1,4-dihydropyrido[2,3-c]pyrimidin-3(2H)-yl]cyclohexyl}imidazo[1,2-a]pyridine-2-carboxamide]",126
4,"O=C(N[C@H]1CC[C@@H](n2c(=O)c3cc(F)cnc3n(-c3cccc(-c4ccccc4O)c3)c2=O)CC1)c1cn2cc(F)ccc2n1 [Example 26, 6-fluoro-N-{cis-4-[6-fluoro-1-(2′-hydroxybiphenyl-3-yl)-2,4-dioxo-1,4-dihydropyrido[2,3-d]pyrimidin-3(2H)-yl]cyclohexyl}imidazo[1,2-a]pyridine-2-carboxamide.]",50.1
5,"CN(Cc1ccc(-c2cccc(-n3c(=O)n([C@H]4CC[C@@H](NC(=O)C5(N(C)C)CC5)CC4)c(=O)c4cc(F)cnc43)c2)cc1)C(C)(C)C [Example 207, N-{cis-4-[1-(4′-{[tert-butyl(methyl)amino]methyl}biphenyl-3-yl)-6-fluoro-2,4-dioxo-1,4-dihydropyrido[2,3-d]pyrimidin-3(2H)-yl]cyclohexyl}-1-(dimethylamino)cyclopropanecarboxamide]",316
6,"O=C(N[C@H]1CC[C@@H](n2c(=O)c3cc(F)cnc3n(-c3cccc(-c4ccc(CC5CCNCC5)cc4)c3)c2=O)CC1)c1cn2cc(F)ccc2n1 [Example 345, 6-fluoro-N-{cis-4-[6-fluoro-2,4-dioxo-1-[4′-(piperidin-4-ylmethyl)biphenyl-3-yl]-1,4-dihydropyrido[2,3-d]pyrimidin-3(2H)-yl]cyclohexyl}imidazo[1,2-a]pyridine-2-carboxamide]",31.6
7,"O=C(NCc1ccccc1)c1cccc(-n2c(=O)n([C@H]3CC[C@@H](NC(=O)c4cn5cc(F)ccc5n4)CC3)c(=O)c3cc(F)cnc32)c1 [Example 92, N-{cis-4-[1-{3-[(benzylamino)carbonyl]phenyl}-6-fluoro-2,4-dioxo-1,4-dihydropyrido[2,3-d]pyrimidin-3(2H)-yl]cyclohexyl}-6-fluoroimidazo[1,2-a]pyridine-2-carboxamide]",631
8,"CN(C)Cc1ccc(-c2cccc(-n3c(=O)n([C@H]4CC[C@@H](NC(=O)c5ccccc5OCCO)CC4)c(=O)c4cc(F)cnc43)c2)cc1 [Example 272, N-{cis-4-[1-{4′-[(Dimethylamino)methyl]biphenyl-3-yl}-6-fluoro-2,4-dioxo-1,4-dihydropyrido[2,3-d]pyrimidin-3(2H)-yl]cyclohexyl}-2-(2-hydroxyethoxy)benzamide]",794
9,"CC(C)NCCCc1ccc(-c2cccc(-n3c(=O)n([C@H]4CC[C@@H](NC(=O)c5cn6cc(F)ccc6n5)CC4)c(=O)c4cc(F)cnc43)c2)cc1 [Example 95, 6-fluoro-N-{cis-4-[6-fluoro-1-{4′-[3-(isopropylamino)propyl]biphenyl-3-yl]-2,4-dioxo-1,4-dihydropyrido[2,3-d]pyrimidin-3(2H)-yl]cyclohexyl}imidazo[1,2-a]pyridine-2-carboxamide]",20
10,"COCCNCc1ccc(-c2cccc(-n3c(=O)n([C@H]4CC[C@@H](NC(=O)c5cc(C)n(C)n5)CC4)c(=O)c4cc(F)cnc43)c2)cc1 [Example 117, N-{cis-4-[6-fluoro-1-(4′-{[(2-methoxyethyl)amino]methyl}biphen-yl-3-yl)-2,4-dioxo-1,4-dihydropyrido[2,3-d]pyrimidin-3(2H)-yl]cyclohexyl}-1,5-dimethyl-1H-pyrazole-3-carboxamide]",126
11,"CN(Cc1ccccc1)C(=O)c1cccc(-n2c(=O)n([C@H]3CC[C@@H](NC(=O)c4cn5cc(F)ccc5n4)CC3)c(=O)c3cc(F)cnc32)c1 [Example 90, N-{cis-4-[1-(3-{[benzyl(methyl)amino]carbonyl}phenyl)-6-fluoro-2,4-dioxo-1,4-dihydropyrido[2,3-d]pyrimidin-3(2H)-yl]cyclohexyl}-6-fluoroimidazo[1,2-a]pyridine-2-carboxamide]",1260
12,"NCCNC(=O)c1cccc(-n2c(=O)n([C@H]3CC[C@@H](NC(=O)c4cn5ccccc5n4)CC3)c(=O)c3cc(F)cnc32)c1 [Example 5, N-{cis-4-[1-(3-{[(2-aminoethyl)amino]carbonyl}phenyl)-6-fluoro-2,4-dioxo-1,4-dihydropyrido[2,3-d]pyrimidin-3(2H)-yl]cyclohexyl}imidazo[1,2-a]pyridine-2-carboxamide]",39800
13,"CN1CCN(CC(=O)N[C@H]2CC[C@@H](n3c(=O)c4cc(F)cnc4n(-c4cccc(-c5ccc(CN6CCCN(C)CC6)cc5)c4)c3=O)CC2)CC1 [Example 291, N-{cis-4-[6-fluoro-1-{4′-[(4-methyl-1,4-diazepan-1-yl)methyl]biphenyl-3-yl}-2,4-dioxo-1,4-dihydropyrido[2,3-d]pyrimidin-3(2H)-yl]cyclohexyl}-2-(4-methylpiperazin-1-yl)acetamide]",200
14,"O=C(NC1CN2CCC1CC2)c1cccc(-n2c(=O)n([C@H]3CC[C@@H](NC(=O)c4cn5cc(F)ccc5n4)CC3)c(=O)c3cc(F)cnc32)c1 (stereo partly drawn) [Example 42, N-{cis-4-[1-{3-[(1-azabicyclo[2.2.2]oct-3-ylamino)carbonyl]phenyl}-6-fluoro-2,4-dioxo-1,4-dihydropyrido[2,3-d]pyrimidin-3 (2H)-yl]cyclohexyl}-6-fluoroimidazo[1,2-a]pyridine-2-carboxamide]",20000
15,"O=C(N[C@H]1CC[C@@H](n2c(=O)c3cc(F)cnc3n(-c3cccc(-c4ccc(CN5CCNCC5)cc4O)c3)c2=O)CC1)c1cn2cc(F)ccc2n1 [Example 274, 6-Fluoro-N-{cis-4-[6-fluoro-1-[2′-hydroxy-4′-(piperazin-1-ylmethyl)biphenyl-3-yl]-2,4-dioxo-1,4-dihydropyrido[2,3-d]pyrimidin-3(2H)-yl]cyclohexyl}imidazo[1,2-a]pyridine-2-carboxamide]",63.1
